Measurements as given in PubChem BioAssay AID434951 (Broad Institute, 2010).
pEC50: −log10 of the molar value. Active and inactive are the calls of the source.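 The calls were made as follows: active = a fitted half-maximal concentration EC50 for the rise in nuclear signal no higher than ten times the top dose tested; inconclusive = flat fit with activity between 30% and 70%, or unusable fit; inactive = EC50 beyond ten times the top dose.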

Biological target: Hypoxia-inducible factor 1-alpha (Homo sapiens) (UniProt Q16665)
Sequence (Q16665 whole entry, looked up): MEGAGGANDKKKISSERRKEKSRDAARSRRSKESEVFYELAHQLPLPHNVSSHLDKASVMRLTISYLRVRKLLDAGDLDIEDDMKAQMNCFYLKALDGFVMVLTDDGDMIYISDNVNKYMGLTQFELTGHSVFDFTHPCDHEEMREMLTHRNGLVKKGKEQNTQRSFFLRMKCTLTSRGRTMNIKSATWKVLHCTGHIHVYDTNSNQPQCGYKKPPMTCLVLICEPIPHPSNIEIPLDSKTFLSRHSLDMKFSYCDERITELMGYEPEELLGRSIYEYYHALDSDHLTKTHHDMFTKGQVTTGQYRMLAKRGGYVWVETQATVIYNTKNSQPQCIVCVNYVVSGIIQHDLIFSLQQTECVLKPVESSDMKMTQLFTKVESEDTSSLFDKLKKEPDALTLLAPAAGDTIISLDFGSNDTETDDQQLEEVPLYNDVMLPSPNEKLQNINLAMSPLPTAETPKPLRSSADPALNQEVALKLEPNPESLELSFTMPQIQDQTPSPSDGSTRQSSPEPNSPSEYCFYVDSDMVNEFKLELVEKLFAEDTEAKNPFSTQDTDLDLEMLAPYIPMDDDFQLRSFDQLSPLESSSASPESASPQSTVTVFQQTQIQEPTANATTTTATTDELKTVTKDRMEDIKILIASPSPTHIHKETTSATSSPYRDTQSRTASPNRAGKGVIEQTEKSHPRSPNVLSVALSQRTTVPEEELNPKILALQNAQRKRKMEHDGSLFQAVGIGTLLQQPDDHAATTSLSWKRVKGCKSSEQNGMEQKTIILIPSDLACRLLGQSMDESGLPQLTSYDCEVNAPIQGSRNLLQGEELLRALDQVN
Assay: HIF pathway activation, GFP-HIF1alpha translocation – imaging, fluorescence, U2OS GFP-HIF1alpha, confirmation (AID 434951)
Settings: U2OS GFP-HIF1alpha nuclear intensity, high-content imaging

| Compound | EC50 | pEC50 |
| --- | --- | --- |
| COC(=O)C(NC(=O)c1c(C)nn(C)c1Cl)c1ccccc1 (stereo not given) | > 35 µM (inactive) | – |
| COc1ccc(-c2cc(C(F)(F)F)nc(S(=O)(=O)CCCC(=O)Nc3cc(C)on3)n2)cc1OC | > 35 µM (inactive) | – |
| CCOc1ccc(/C=C/C(=O)c2ccccc2)cc1OC | – | 4.71 |
| CNc1nc(-c2ccccn2)nnc1-c1ccccc1 | – | 5.13 |
| O=C(c1ccc(-c2nnc(-c3ccccc3)o2)cc1)N1CCCCCC1 | > 35 µM (inactive) | – |
| CCOc1ccccc1N1CCN(C(=S)NC(=O)C23CC4CC(CC(C4)C2)C3)CC1 | > 35 µM (inactive) | – |
| CCCCC(=O)NC(c1ccc(N(C)C)cc1)c1ccc2cccnc2c1O (stereo not given) | – | 5.51 |
| CN1CCC2(CC1)N=C(c1ccc(F)cc1)C(=S)N2C(=O)c1ccc(C(C)(C)C)cc1 | > 35 µM (inactive) | – |
| CC(=O)Nc1ccc(NC(=O)CCC(=O)OCC(=O)c2ccc(F)cc2)cc1 | > 35 µM (inactive) | – |
| COc1ccc(CNC(=S)N/N=C/c2ccc(O)c(OC)c2)cc1 | > 35 µM (inactive) | – |
| Cc1ccc2c(c1)cc(C(=O)NCc1ccccc1)n2C | > 35 µM (inactive) | – |
| CC(=O)N1c2ccc(S(=O)(=O)NCCc3ccccc3)cc2CC1C (stereo not given) | > 35 µM (inactive) | – |
| CN(CC(=O)Nc1ccc(S(=O)(=O)N2CCCC2)cc1)CC(=O)Nc1cccc(F)c1 | > 35 µM (inactive) | – |
| Cc1ccc(Nc2c(-c3ccccn3)nc3cc(C)ccn23)cc1 | – | 5.26 |
| Cc1cc(SCC(=O)N/N=C/c2ccccc2C(=O)O)c(C)cc1Br | > 35 µM (inactive) | – |
| CCC(C)c1ccc2oc(-c3ccc(NC(=O)Cn4cnc5c(=O)n(C)c(=O)n(C)c54)cc3)nc2c1 (stereo not given) | – | 5.22 |
| Cc1ccc(-c2cc(C(=O)N3CCCCCC3)no2)cc1 | > 35 µM (inactive) | – |
| COc1ccccc1-c1cc(C(F)(F)F)nc(S(=O)(=O)CCCC(=O)NC(C)C)n1 | > 35 µM (inactive) | – |
| CCCCOc1ccc(C(=O)NCC(=O)OC2CCOC2=O)cc1 (stereo not given) | – | 4.46 |
| COc1ccccc1CNC(=O)c1cccc(NC(=O)c2ccccc2)c1 | > 35 µM (inactive) | – |
| Cn1c(CCNC(=O)c2ccco2)nc2cc(NC(=O)C3CCCCC3)ccc21 | > 35 µM (inactive) | – |
| NC(=O)CSc1nnc2ccc(-c3ccc(Cl)cc3)nn12 | > 35 µM (inactive) | – |
| COC(=O)C1=C(C)N(Cc2ccc(OC)cc2)C(=O)C1 | > 35 µM (inactive) | – |
| O=C(NCC1CCCO1)c1cc(-c2ccc(F)cc2)no1 (stereo not given) | – | 4.49 |
| CC(C)CC(NC(=O)c1ccccc1NC(=O)c1ccccc1)C(=O)O (stereo not given) | > 35 µM (inactive) | – |
| CC(=O)NC(c1ccc2ccccc2c1)c1ccc2cccnc2c1O (stereo not given) | – | 5.07 |
| CC(=O)Nc1ccc(Nc2nc(C)c([N+](=O)[O-])c(Nc3ccc(NC(C)=O)cc3)n2)cc1 | > 35 µM (inactive) | – |

Now from value to compound:

| EC50 | pEC50 | Compound |
| --- | --- | --- |
| > 35 µM (inactive) | – | CC[n+]1c(S(=O)(=O)[O-])ccc2ccc(C)cc21 |
| > 35 µM (inactive) | – | NS(=O)(=O)c1ccc(CNC(=O)c2csc3c2CCCC3)cc1 |
| > 35 µM (inactive) | – | COc1ccc(NC(=O)c2cccc(NC(=O)c3ccco3)c2)c(OC)c1 |
| > 35 µM (inactive) | – | O=C(CSc1c[nH]c2ccccc12)NCc1ccc2c(c1)OCO2 |
| – | 5.20 | CC(C)CC(=O)NC(c1cccs1)c1ccc2cccnc2c1O (stereo not given) |
| > 35 µM (inactive) | – | O=C(COC(=O)Cc1ccc(S(=O)(=O)N2CCCCC2)s1)Nc1ccc2c(c1)OCO2 |
| > 35 µM (inactive) | – | COc1ccc(NC(=S)Nc2ccccn2)c(OC)c1 |
| > 35 µM (inactive) | – | COc1ccc(/C=C/C(=O)NCCSCc2ccco2)cc1OC |
| > 35 µM (inactive) | – | CN(Cc1ccccc1)C(=O)CC(=O)N(C)Cc1ccccc1 |
| > 35 µM (inactive) | – | O=C(N/N=C/c1cc(Br)ccc1OC(=O)c1ccc(Br)cc1)c1ccncc1 |
| > 35 µM (inactive) | – | CSc1ccc(/C=N/Nc2ccc(Cl)c(C(=O)O)c2)cc1 |
| > 35 µM (inactive) | – | CCn1cc(C(=O)NCC(OC)OC)c(=O)c2cc(S(=O)(=O)N3CCC(C)CC3)ccc21 |
| > 35 µM (inactive) | – | CC(=O)c1cccc(NS(=O)(=O)c2ccc(-c3cc(C)no3)s2)c1 |
